Results: ChEMBL document CHEMBL1201862, “PubChem BioAssay data set” (2004)
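Values below derive from 48-hour exposures of cells grown in 96-well plates, with endpoints linearly interpolated between the two concentrations bracketing the appropriate inhibition level. GI50 marks 50% less growth.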 The source made the active and inactive calls. Rule as the data show it: active = GI50 up to about 1.1 µM and inactive = higher.

Experiments:
Assay in all cases: growth of human tumour cells (NCI), 48 h
[1] = test system: MDA-MB-435
[2] = test system: UO-31
[3] = test system: Hs-578T
[4] = test system: HOP-62
[5] = test system: BT-549
[6] = test system: SW-620
[7] = test system: M14
[8] = test system: PC-3
[9] = test system: SN12C
[10] = test system: NCI-H23
[11] = test system: NCI-H460
[12] = test system: SK-MEL-2
[13] = test system: A498
[14] = test system: OVCAR-8
[15] = test system: SNB-75
[16] = test system: CCRF-CEM
[17] = test system: HCT-116
[18] = test system: K562
[19] = test system: SK-MEL-5
[20] = test system: NCI-H522

Structure (SMILES) | GI50 [1] | GI50 [2] | GI50 [3] | GI50 [4] | GI50 [5] | GI50 [6] | GI50 [7] | GI50 [8] | GI50 [9] | GI50 [10] | GI50 [11] | GI50 [12] | GI50 [13] | GI50 [14] | GI50 [15] | GI50 [16] | GI50 [17] | GI50 [18] | GI50 [19] | GI50 [20]
Cn1c2ccccc2c2cc(-c3ccccc3)c3c(c21)C(=O)C=CC3=O | 15.1 µM (inactive) | 19.8 µM (inactive) | 28.9 µM (inactive) | 28.8 µM (inactive) | 12.4 µM (inactive) | 9.48 µM (inactive) | 21.1 µM (inactive) | 18.4 µM (inactive) | 21.7 µM (inactive) | 17.2 µM (inactive) | 20.6 µM (inactive) | 22.4 µM (inactive) | 22.5 µM (inactive) | 30.3 µM (inactive) | 27.6 µM (inactive) | 1.59 µM (inactive) | 20.2 µM (inactive) | 5.31 µM (inactive) | 28.3 µM (inactive) | 17.5 µM (inactive)
CC(=O)C1=C(N=[N+]=[N-])c2cccc3cccc(c23)C1=O | 20.6 µM (inactive) | 14.6 µM (inactive) | 29.3 µM (inactive) | 14.8 µM (inactive) | 20.8 µM (inactive) | 18.3 µM (inactive) | 12.7 µM (inactive) | 19.8 µM (inactive) | 16.1 µM (inactive) | 20 µM (inactive) | 21 µM (inactive) | 12.4 µM (inactive) | 28.8 µM (inactive) | 23.6 µM (inactive) | 21.8 µM (inactive) | 5.73 µM (inactive) | 16 µM (inactive) | 8.11 µM (inactive) | 18.7 µM (inactive) | 14.2 µM (inactive)
C1COCCN1.CN(C)c1ccc(-c2c(C#N)c(N)nc(S)c2C#N)cc1 | 83.4 µM (inactive) | 64.1 µM (inactive) | 4.57 µM (inactive) | 87.3 µM (inactive) | 83 µM (inactive) | 63 µM (inactive) | 34 µM (inactive) | 30.5 µM (inactive) | 66.2 µM (inactive) | 60 µM (inactive) | 40.2 µM (inactive) | 34.4 µM (inactive) | 24.9 µM (inactive) | > 100 µM (inactive) | 34.3 µM (inactive) | 38.5 µM (inactive) | > 100 µM (inactive) | > 100 µM (inactive) | 44.7 µM (inactive) | 29 µM (inactive)
O=C1C(N2CCN(CCOCCO)CC2)=C(Cl)C(=O)c2ncccc21 | 1.88 µM (inactive) | 17.7 µM (inactive) | > 10 µM (inactive) | > 10 µM (inactive) | 4.89 µM (inactive) | 23 µM (inactive) | 20.8 µM (inactive) | 20.7 µM (inactive) | 19.5 µM (inactive) | 20.3 µM (inactive) | 75.2 µM (inactive) | 20.9 µM (inactive) | > 10 µM (inactive) | 18.1 µM (inactive) | 38.3 µM (inactive) | 1.92 µM (inactive) | 5.71 µM (inactive) | 3.2 µM (inactive) | 16.6 µM (inactive) | 2.08 µM (inactive)
Cc1cc(C)c2c(=O)n(CC(O)CN3CCN(CCOCCO)CC3)sc2n1 (centres undefined) | 17.4 µM (inactive) | 20.7 µM (inactive) | 28.5 µM (inactive) | 28.4 µM (inactive) | 16.6 µM (inactive) | 25.6 µM (inactive) | 17.8 µM (inactive) | 18.7 µM (inactive) | 18.4 µM (inactive) | 15.3 µM (inactive) | 20.2 µM (inactive) | 19.7 µM (inactive) | 21.9 µM (inactive) | 19.9 µM (inactive) | 1.65 µM (inactive) | 11.4 µM (inactive) | 17.1 µM (inactive) | 37.3 µM (inactive) | 15.1 µM (inactive) | 14.6 µM (inactive)
O=c1cc(N2CCNCC2)nc2ccccn12 | > 100 µM (inactive) | > 100 µM (inactive) | > 100 µM (inactive) | > 100 µM (inactive) | > 100 µM (inactive) | > 100 µM (inactive) | > 100 µM (inactive) | > 100 µM (inactive) | > 100 µM (inactive) | > 100 µM (inactive) | – | > 100 µM (inactive) | > 100 µM (inactive) | > 100 µM (inactive) | > 100 µM (inactive) | > 100 µM (inactive) | > 100 µM (inactive) | > 100 µM (inactive) | > 100 µM (inactive) | > 100 µM (inactive)
CC(=O)O[C@H]1C(=O)[C@@]2(C)[C@H]([C@H](OC(=O)c3ccoc3)[C@]3(O)C[C@H](OC(=O)[C@H](O)[C@@H](NC(=O)c4ccccc4)c4ccccc4)C(C)=C1C3(C)C)[C@]1(OC(C)=O)CO[C@@H]1C[C@@H]2O | 0.00456 µM (active) | > 8.91 µM (inactive) | 0.0249 µM (active) | 0.206 µM (active) | 0.615 µM (active) | 0.0448 µM (active) | 0.129 µM (active) | 0.053 µM (active) | – | > 12.5 µM (inactive) | 0.0524 µM (active) | 0.0448 µM (active) | 0.811 µM (active) | 0.0798 µM (active) | 0.141 µM (active) | 0.0566 µM (active) | 0.0186 µM (active) | 0.0324 µM (active) | 0.0467 µM (active) | 0.0434 µM (active)
O=C(O)Cc1c(O)ccc2ccccc12 | > 100 µM (inactive) | – | > 100 µM (inactive) | > 100 µM (inactive) | > 100 µM (inactive) | > 100 µM (inactive) | > 100 µM (inactive) | > 100 µM (inactive) | > 100 µM (inactive) | > 100 µM (inactive) | > 100 µM (inactive) | > 100 µM (inactive) | > 100 µM (inactive) | > 100 µM (inactive) | > 100 µM (inactive) | – | > 100 µM (inactive) | > 100 µM (inactive) | > 100 µM (inactive) | > 100 µM (inactive)
O=C1Nc2ccccc2/C1=N\c1cccc2ncccc12 | 20 µM (inactive) | > 100 µM (inactive) | 39.1 µM (inactive) | 46.5 µM (inactive) | > 100 µM (inactive) | > 100 µM (inactive) | > 100 µM (inactive) | > 100 µM (inactive) | > 100 µM (inactive) | 32.2 µM (inactive) | 69.7 µM (inactive) | > 100 µM (inactive) | > 100 µM (inactive) | > 100 µM (inactive) | 94.8 µM (inactive) | – | 58.7 µM (inactive) | 34 µM (inactive) | 67 µM (inactive) | 28.1 µM (inactive)
CCOC(=O)CCC(NC(=O)Cc1ccc(Oc2nc3ccccc3nc2-c2ccccc2)cc1)C(=O)OCC (centres undefined) | > 100 µM (inactive) | 52.5 µM (inactive) | 34.8 µM (inactive) | 45.6 µM (inactive) | > 100 µM (inactive) | > 100 µM (inactive) | > 100 µM (inactive) | 41.9 µM (inactive) | > 100 µM (inactive) | > 100 µM (inactive) | > 100 µM (inactive) | > 100 µM (inactive) | > 100 µM (inactive) | – | 37.8 µM (inactive) | > 100 µM (inactive) | > 100 µM (inactive) | 63.2 µM (inactive) | 57.9 µM (inactive) | 34.6 µM (inactive)
